Laboratory results taken from US9657351B2, “MRNA-based gene expression for personalizing patient cancer therapy with an MDM2 antagonist” (Hoffmann-La Roche Inc., priority 2013, dated 2017).

Experiments:
Assay in all cases: COMPOUND A In Vitro Assay
Type in all cases: cell-based
LS411N = conditions: Homo sapiens, LS-411N, Intestine, large, caecum, TP53 Mutant
Description: (§1) To generate an MDM2 antagonist therapy predictive signature, the response of MDM2 antagonist therapy in vitro with gene expression profiling (FIG. 1) is combined. A bank of 287 human cancer cell lines, collectively termed the Cell Lines for Oncology/Chugai ACcumulative Tumour EncycLopedia (CELLO/CACTEL), representing a broad array of diverse human cancer tumor types are subject to evaluation using several high-throughput genomic technology platforms. The mutational status of nucleic acids from each cell line is determined by exome sequencing. Messenger RNA (mRNA) expression levels at baseline, prior to MDM2 antagonist therapy, are obtained via RNA sequencing. MDM2 antagonist therapy COMPOUND A, sometimes referred to herein as RG7112, responses are obtained by assays known to those skilled in the art such as RNA sequencing and microarray measurement using Gene Chip Human Genome U133 Plus 2.0 Array. The MDM2 therapy responses are obtained by high throughout screening assays. Depending on their responses to COMPOUND A these cell lines are classified as either sensitive, defined as IC50<=1, or resistant, defined as IC50>=10.
(§2) 281 cells are treated with MDM2 antagonists and the IC50 (therapy response) is generated. The cell lines span a broad range of tumor cell types of derivation.

NCI-H2170 = conditions: Homo sapiens, Lung, TP53 Mutant
Description: as §1, §2

HDLM-2 = conditions: Homo sapiens, Lymphocyte B, TP53 Mutant
Description: as §1, §2

HARA-B = conditions: Homo sapiens, Lung, TP53 Mutant
Description: as §1, §2

HCC1599 = conditions: Homo sapiens, Breast, mammary gland, TP53 Mutant
Description: as §1, §2

COLO-704 = conditions: Homo sapiens, Ovary, TP53 Wild type
Description: as §1, §2

Daoy = conditions: Homo sapiens, Brain, cerebellum, TP53 Mutant
Description: as §1, §2

ZR-75-1 = conditions: Homo sapiens
Description: as §1, §2

PC-1 = conditions: Homo sapiens, tissue null, TP53 Wild type
Description: as §1, §2

HMCB = conditions: Homo sapiens, Skin, TP53 Mutant
Description: as §1, §2

LS513 = conditions: Homo sapiens
Description: as §1, §2

KYSE-520 = conditions: Homo sapiens, Esophagus, TP53 Mutant
Description: as §1, §2

CFPAC-1 = conditions: Homo sapiens, Pancreas, TP53 Mutant
Description: as §1, §2

HCT-8 = conditions: Homo sapiens, Intestine, large, colon, TP53 Wild type
Description: as §1, §2

SK-LU-1 = conditions: Homo sapiens, Lung, TP53 Mutant
Description: as §1, §2

NCI-N87 = conditions: Homo sapiens, Stomach, TP53 Mutant
Description: as §1, §2

Capan-1 = conditions: Homo sapiens, Pancreas, TP53 Mutant
Description: as §1, §2

RT4 = conditions: Homo sapiens, RT-4, Urinary, bladder, TP53 Wild type
Description: as §1, §2

U-87 MG = conditions: Homo sapiens
Description: as §1, §2

AN3 CA = conditions: Homo sapiens, Uterus, endometrium, TP53 Mutant
Description: as §1, §2

647-V = conditions: Homo sapiens, Urinary tract, urothelium, TP53 Mutant
Description: as §1, §2

ABC-1 = conditions: Homo sapiens, Lung, TP53 Mutant
Description: as §1, §2

KG-1 = conditions: Homo sapiens, Bone marrow, TP53 Mutant
Description: as §1, §2

NCI-H292 = conditions: Homo sapiens, Lung, TP53 Wild type
Description: as §1, §2

NCI-H2081 = conditions: Homo sapiens, Lung, TP53 Wild type
Description: as §1, §2

LP-1 = conditions: Homo sapiens, Lymphocyte, peripheral blood, TP53 Mutant
Description: as §1, §2

RPMI-8226 = conditions: Homo sapiens, Lymphocyte B, peripheral blood, TP53 Mutant
Description: as §1, §2

NCI-H2029 = conditions: Homo sapiens, Lung, TP53 Mutant
Description: as §1, §2

SW837 = conditions: Homo sapiens, Intestine, large, rectum, TP53 Mutant
Description: as §1, §2

IM-9 = conditions: Homo sapiens
Description: as §1, §2

HCC1187 = conditions: Homo sapiens, Breast, mammary gland, TP53 Mutant
Description: as §1, §2

NCI-H1666 = conditions: Homo sapiens, Lung, TP53 Wild type
Description: as §1, §2

NCI-H1755 = conditions: Homo sapiens, Lung, TP53 Mutant
Description: as §1, §2

NCI-H1650 = conditions: Homo sapiens, Lung, TP53 Mutant
Description: as §1, §2

D-283MED = conditions: Homo sapiens, D283 Med, tissue NA, TP53 Wild type
Description: as §1, §2

5637 = conditions: Homo sapiens, Urinary, bladder, TP53 Mutant
Description: as §1, §2

`CCOc1cc(C(C)(C)C)ccc1C1=N[C@@](C)(c2ccc(Cl)cc2)[C@@](C)(c2ccc(Cl)cc2)N1C(=O)N1CCN(CCCS(C)(=O)=O)CC1` [COMPOUND A] gave an IC50 (LS411N) of 16 µM, an IC50 (NCI-H2170) of 12 µM and an IC50 (HDLM-2) of 33 µM. It also gave an IC50 (HARA-B) of 10 µM, an IC50 (HCC1599) of 12 µM and an IC50 (COLO-704) of 20 µM. The IC50 (Daoy) was 9.7 µM, the IC50 (ZR-75-1; ZR-75-1, ZR-75-1, Breast, mammary gland, TP53 Wild type) was 0.076 µM and the IC50 (ZR-75-1; ZR-75-1, ZR-75-1 cells) was 0.1 µM. It also gave an IC50 (PC-1) of 1.3 µM, an IC50 (HMCB) of 15 µM and an IC50 (LS513; LS-513, LS513, Intestine, large, caecum, TP53 Wild type) of 0.49 µM. It also gave an IC50 (LS513; LS-513, LS513 cells) of 0.5 µM, an IC50 (KYSE-520) of 10 µM and an IC50 (CFPAC-1) of 5.7 µM. It also gave an IC50 (HCT-8) of 16 µM, an IC50 (SK-LU-1) of 11 µM and an IC50 (NCI-N87) of 12 µM. For the same compound, the IC50 (Capan-1) was 20 µM, the IC50 (RT4) was 2.4 µM and the IC50 (U-87 MG; Brain, TP53 Wild type) was 0.18 µM. It also gave an IC50 (U-87 MG; U-87 MG cells) of 0.2 µM, an IC50 (AN3 CA) of 18 µM and an IC50 (647-V) of 17 µM. For the same compound, the IC50 (ABC-1) was 9.9 µM, the IC50 (KG-1) was 15 µM and the IC50 (NCI-H292) was 1.6 µM. For the same compound, the IC50 (NCI-H2081) was 17 µM, the IC50 (LP-1) was 4.4 µM and the IC50 (RPMI-8226) was 6.6 µM. The IC50 (NCI-H2029) was 5.8 µM, the IC50 (SW837) was 12 µM and the IC50 (IM-9; IM-9, IM-9, Lymphocyte B, peripheral blood, TP53 Wild type) was 0.14 µM. It also gave an IC50 (IM-9; IM-9, IM-9 cells) of 0.1 µM, an IC50 (HCC1187) of 12 µM and an IC50 (NCI-H1666) of 13 µM. It also gave an IC50 (NCI-H1755) of 7.8 µM, an IC50 (NCI-H1650) of 10 µM and an IC50 (D-283MED) of 1.2 µM. For the same compound, the IC50 5637 was 8.5 µM.
